According to patent US12419307B2, “Mixtures comprising indazole pesticides” (FMC Corporation, priority 2019, dated 2025):
Read-outs that look alike come from different tables or passages of the source.

Columns and labels:
Format in all cases: in vivo
[1] = test system: corn planthopper (Peregrinus maidis (Ashmead)); assay: Test C: corn planthopper control on corn plants, insect mortality after 6 days; settings: Peregrinus maidis, read-out: % Mortality (obs)
Summary of the method: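 3-4-day-old potted corn plants sprayed at 250, 50 and/or 10 ppm (contact/systemic), dried 1 h, then infested with ~15-20 nymphs 18-21 days old. Mortality scored after 6 days at 19-21 °C, 50-70% RH; mixture effects judged against Colby-expected mortality.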

[2] = test system: cotton melon aphid (Aphis gossypii Glover); assay: Test D: cotton melon aphid control on okra plants, insect mortality after 6 days; settings: Aphis gossypii, read-out: % Mortality (obs)
Summary of the method: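 Okra plants (6–7 days old) pre-infested with 30–40 aphids by cut-leaf transfer were sprayed, three replicates, then held 6 days at 19-21° C and 50-70% RH before mortality scoring. Mixture enhancement was judged against Colby-expected % mortality.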

[3] = test system: silverleaf whitefly (Bemisia argentifolii Bellows and Perring); assay: Test A: silverleaf whitefly control on cotton or soybean plants, spray, insect mortality after 13 days; settings: Bemisia argentifolii, applied alone, read-out: % Mortality (obs)
Summary of the method: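 Cotton (12–14-day) or soybean (5–7-day) plants carrying whitefly eggs were sprayed with compound in 10% acetone/water with non-ionic surfactant. Plants were held 13 days at 28°C and 50–70% RH; mortality was averaged over three replicates. Mixture enhancement was judged against Colby-expected values.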

[4] = test system: diamondback moth (Plutella xylostella L.); assay: Test E: diamondback moth control through ingestion only, sprayed cabbage leaf tissue (Dipel), mortality after 4 days; settings: Table 6c, read-out: % Mortality (obs)
Protocol: The pest control protection afforded by the mixtures or compositions is not limited, however, to these species. The analysis of enhanced activity between the mixtures or compositions was determined using Colby's equation. The average % mortality data for the test compounds alone were inserted into the Colby's equation. If the observed (obs) average % mortality was higher than “p”, the expected (exp) % mortality, the mixture or composition had enhanced effects. If the observed average % mortality was equal to or lower than the expected mortality, the mixture or composition either had no enhanced effect. For bioassays where insect feeding damage was evaluated, enhanced activity is identified when the observed plant damage is less than the expected plant damage rating; ratings ranged between 0 (no damage) and 10 (dead plant) and each value was converted to a % plant protection. 100−(Obs Plant Damage*10)
For evaluating control of diamondback moth (Plutella xylostella L.) through ingestion only, the test substance Dipel® (active ingredient Bacillus thuringiensis kurstaki) was formulated by diluting in water and then adding an MSO based adjuvant at 0.1% v/v. Cabbage plants were sprayed with Dipel® to runoff and allowed to dry for three hours. Once dry, plants leaf tissue was excised and one piece was placed into one well in an eight well tray. Test units were maintained in a growth chamber at 24-25° C. and 70% relative humidity.

Structure (SMILES): CC(C)(CS(C)(=O)=O)NC(=O)c1ccc(F)c2nn(-c3cccnc3)cc12 [Cpd 3, N-[1,1-dimethyl-2-(methylsulfonyl)ethyl]-7-fluoro-2-(3-pyridinyl)-2H-indazole-4-carboxamide]
- mortality at 50 ppm ([1]; 96 h, Table 4d): 8.3%
- mortality at 250 ppm ([1]; 96 h, Table 4d): 0%
- mortality at 50 ppm ([1]; Table 4e): 5%
- mortality at 250 ppm ([1]; Table 4e): 1.2%
- mortality at 0.02 ppm ([2]; 5 h, Table 5h): 37.4%
- mortality at 0.08 ppm ([2]; 5 h, Table 5h): 43.5%
- mortality at 0.02 ppm ([2]; 120 h, Table 5d): 20%
- mortality at 0.08 ppm ([2]; 120 h, Table 5d): 43.2%
- mortality at 0.02 ppm ([2]; Table 5a): 20%
- mortality at 0.08 ppm ([2]; Table 5a): 43.2%
- mortality at 0.02 ppm ([2]; Table 5b): 20%
- mortality at 0.08 ppm ([2]; Table 5b): 43.2%
- mortality at 0.02 ppm ([2]; Table 5c): 0%
- mortality at 0.08 ppm ([2]; Table 5c): 20%
- mortality at 0.02 ppm ([2]; Table 5e): 19.9%
- mortality at 0.08 ppm ([2]; Table 5e): 31.1%
- mortality at 0.02 ppm ([2]; Table 5f): 17.6%
- mortality at 0.08 ppm ([2]; Table 5f): 39%
- mortality at 0.02 ppm ([2]; Table 5g): 15.8%
- mortality at 0.08 ppm ([2]; Table 5g): 30.6%
- mortality at 50 ppm ([3]; 2 h, Table 2h): 0%
- mortality at 250 ppm ([3]; 2 h, Table 2h): 0%
- mortality at 50 ppm ([3]; 48 h, Table 2d): 1.2%
- mortality at 250 ppm ([3]; 48 h, Table 2d): 1.1%
- mortality at 50 ppm ([3]; Table 2a): 25%
- mortality at 250 ppm ([3]; Table 2a): 1.6%
- mortality at 50 ppm ([3]; Table 2b): 0%
- mortality at 250 ppm ([3]; Table 2b): 0%
- mortality at 50 ppm ([3]; Table 2c): 16.1%
- mortality at 250 ppm ([3]; Table 2c): 26.7%
- mortality at 50 ppm ([3]; Table 2e): 1.3%
- mortality at 250 ppm ([3]; Table 2e): 1.2%
- mortality at 50 ppm ([3]; Table 2f): 21.2%
- mortality at 250 ppm ([3]; Table 2f): 25.3%
- mortality at 50 ppm ([3]; Table 2g): 18%
- mortality at 250 ppm ([3]; Table 2g): 27.7%

Structure (SMILES): CC1(NC(=O)c2cccc3nn(-c4cccnc4)cc23)CC1 [Cpd 4, N-(1-methylcyclopropyl)-2-(3-pyridinyl)-2H-indazole-4-carboxamide]
- mortality at 50 ppm ([1]; 96 h, Table 4d): 0%
- mortality at 250 ppm ([1]; 96 h, Table 4d): 9.1%
- mortality at 50 ppm ([1]; Table 4e): 38.9%
- mortality at 250 ppm ([1]; Table 4e): 34.8%
- mortality at 50 ppm ([1]; Table 4f): 1.8%
- mortality at 250 ppm ([1]; Table 4f): 10.8%
- mortality at 50 ppm ([1]; Table 4g): 1.8%
- mortality at 250 ppm ([1]; Table 4g): 10.8%
- mortality at 0.2 ppm ([2]; 5 h, Table 5h): 44.6%
- mortality at 0.5 ppm ([2]; 5 h, Table 5h): 68.7%
- mortality at 0.2 ppm ([2]; 120 h, Table 5d): 48.3%
- mortality at 0.5 ppm ([2]; 120 h, Table 5d): 58.9%
- mortality at 0.2 ppm ([2]; Table 5a): 48.3%
- mortality at 0.5 ppm ([2]; Table 5a): 58.9%
- mortality at 0.2 ppm ([2]; Table 5b): 48.3%
- mortality at 0.5 ppm ([2]; Table 5b): 58.9%
- mortality at 0.2 ppm ([2]; Table 5c): 6.7%
- mortality at 0.5 ppm ([2]; Table 5c): 6.7%
- mortality at 0.2 ppm ([2]; Table 5e): 30.8%
- mortality at 0.5 ppm ([2]; Table 5e): 69.7%
- mortality at 0.2 ppm ([2]; Table 5f): 40.7%
- mortality at 0.5 ppm ([2]; Table 5f): 73.4%
- mortality at 0.2 ppm ([2]; Table 5g): 21%
- mortality at 0.5 ppm ([2]; Table 5g): 45.1%
- mortality at 0.2 ppm ([2]; Table 5i): 33.5%
- mortality at 0.5 ppm ([2]; Table 5i): 80.3%
- mortality at 0.2 ppm ([2]; Table 5j): 33.5%
- mortality at 0.5 ppm ([2]; Table 5j): 80.3%
- mortality at 0.2 ppm ([2]; Table 5k): 40.2%
- mortality at 0.5 ppm ([2]; Table 5k): 69.3%
- mortality at 0.2 ppm ([2]; Table 5l): 40.2%
- mortality at 0.5 ppm ([2]; Table 5l): 69.3%
- mortality at 0.2 ppm ([2]; Table 5m): 42.5%
- mortality at 0.5 ppm ([2]; Table 5m): 65%
- mortality at 0.2 ppm ([2]; Table 5n): 57.1%
- mortality at 0.5 ppm ([2]; Table 5n): 73.9%
- mortality at 50 ppm ([3]; 2 h, Table 2h): 0.9%
- mortality at 250 ppm ([3]; 2 h, Table 2h): 9.2%
- mortality at 50 ppm ([3]; 48 h, Table 2d): 4.9%
- mortality at 250 ppm ([3]; 48 h, Table 2d): 8.3%
- mortality at 50 ppm ([3]; Table 2a): 5.9%
- mortality at 250 ppm ([3]; Table 2a): 11.1%
- mortality at 50 ppm ([3]; Table 2b): 46.7%
- mortality at 250 ppm ([3]; Table 2b): 20%
- mortality at 50 ppm ([3]; Table 2c): 16.1%
- mortality at 250 ppm ([3]; Table 2c): 20.5%
- mortality at 50 ppm ([3]; Table 2e): 29%
- mortality at 250 ppm ([3]; Table 2e): 38.3%
- mortality at 50 ppm ([3]; Table 2f): 15%
- mortality at 250 ppm ([3]; Table 2f): 17.9%
- mortality at 50 ppm ([3]; Table 2g): 30.6%
- mortality at 250 ppm ([3]; Table 2g): 23.1%
- mortality at 50 ppm ([3]; Table 2i): 7%
- mortality at 250 ppm ([3]; Table 2i): 8%
- mortality at 50 ppm ([4]; 50 ppm): 12.5%
- mortality at 250 ppm ([4]; 250 ppm): 17%
